{"source": "patent US20260325485A1", "about": "“COMPOSITIONS AND METHODS FOR TREATING PANCREATITIS” (The United States Government as represented by the …, priority 2022, published 2026)", "key": {"[1]": {"tested_on": "CER/CCK-AP", "test": "Effect of simvastatin and BemA in CER/CCK-AP (mouse and ex-vivo model)", "protocol": "FIGS. 25A-25C show reducing cholesterol overload greatly ameliorates experimental pancreatitis. CER-AP responses were measured in (A) AclyAac or (C) WT mice treated with simvastatin or bempedoic acid (BemA). (B) Acinar cells were transfected with ACLA (or mock) siRNA and subjected to ex-vivo CCK-AP. Each symbol represents an individual mouse or cell preparation. Values are mean±SE. **p<0.01, ***p<0.001 vs saline treated control mice (or mock transfection); #p<0.05, ##p<0.01, ###p<0.001 vs CER/CCK-AP in control mice (i.e. without inhibitors) or cells.\nFIGS. 26A-26D preventing cholesterol overload ameliorates ex-vivo pancreatitis. Mouse pancreatic acinar cells were incubated (A, B) with simvastatin (4 μM, 3 h) or (C, D) cholesterol chelator, methyl-β-cyclodextrin (MCD; 10 mM, 1 h) and then subjected to CCK-AP for 1 (D) or 3 h (A, B). Cholesterol content (A, C) necrosis (B), and trypsin activity (D) were measured. Each symbol represents an individual cell preparation. Values are mean±SEM*p<0/05, **p<0.01 vs control; #p<0.05 ##p<0.01; vs CCK, no inhibitor.\nCholesterol metabolism is disrupted in pancreatitis as a result of lysosomal/autophagy dysfunction. Preventing acinar cell cholesterol overload with simvastatin alleviates AP in one experimental model (CER-AP). As discussed above, lysosomal/autophagy dysfunction is associated with both experimental and human pancreatitis.^6, 7, 9, 13, 17 However, until a recent publication^13 there was very little known on cholesterol metabolism in healthy pancreas, its changes in experimental and human pancreatitis, and role in disease severity. Further, effects of statins and other cholesterol-lowering drugs in pancreas, and the underlying mechanisms, have not been explored. […] This, in turn, stimulates a compensatory increase in cholesterol synthesis, further exacerbating cholesterol overload. It was further shown^13 that inhibition of cholesterol synthesis with simvastatin reduced acinar cell cholesterol overload and the severity of pancreatitis induced with supramaximal cerulein (CER), an ortholog of the hormone cholecystokinin-8 (CCK). The findings^13 reveal a previously unrecognized pathogenic role of cholesterol dysregulation in pancreatitis and indicate normalizing cholesterol metabolism as a novel therapeutic approach for disease treatment.\nIn summary, the published^13 and current data (FIGS. 23-26) reveal that disruption of acinar cell cholesterol metabolism is a common feature in models of experimental pancreatitis and also prominent in human disease. The key manifestation of cholesterol dyshomeostasis in pancreatitis is acinar cell cholesterol overload. […]"}, "[2]": {"tested_on": "pancreas", "test": "Drug treatment of Gnptab−/− mice: pancreatic total cholesterol", "assay_type": "in vivo, mouse", "protocol": "12-week-old Gnptab−/− mice were subjected to daily i.p. injections of 20 mg/kg simvastatin or the same dose of T0901317 for 4 or 21 days.\nTotal cholesterol content was measured with Cholesterol Assay kit per manufacturer's instructions. Samples of mouse pancreas and liver, cell pellet homogenates, subcellular fractions, isolated mitochondria, and serum were diluted in the reaction buffer containing cholesterol probe and incubated at 37° C. for 1 h in the dark. To measure total cholesterol, the samples were subjected to digestion with cholesterol esterase. To measure non-esterified cholesterol, the esterase was omitted from the assay."}}, "note": "“Also recorded” adds a separate entry of the source."}
{"compound": "CCC(C)(C)C(=O)O[C@H]1C[C@@H](C)C=C2C=C[C@H](C)[C@H](CC[C@@H]3C[C@@H](O)CC(=O)O3)[C@H]21", "note": "[simvastatin]", "values": [{"measurement": "cholesterol overload, CER/CCK-AP", "setting": "[1]", "result": "reduced; also recorded: prevented"}, {"measurement": "disease severity, CER/CCK-AP", "setting": "[1]", "result": "reduced"}, {"measurement": "total cholesterol content in pancreas, Gnptab−/− mice", "setting": "[2]; 20 mg/kg i.p. daily for 4 or 21 days", "result": "Neither treatment changed"}, {"measurement": "pancreatic total cholesterol, Gnptab−/− mice", "setting": "[2]; even for 3 weeks", "result": "failed to decrease"}]}
